From patent US20250170156A1, “TOLL-LIKE RECEPTOR LIGANDS” (INIMMUNE CORPORATION, priority 2018, published 2025) come the findings set out here.

What is called EC50 is the midpoint of the concentration-response curve.

Test [1] has as its target T1, hTLR4 (Homo sapiens, UniProt O00206+Q9Y6Y9).
T1 construct: expressed in transfected cells; host or cells: HEK cells expressing hTLR4 and an NF-κB driven SEAP reporter
Nature of the test: HEK hTLR4 NF-κB driven SEAP reporter assay (hTLR4 activation). It is filed as cell-based. The following applies: 18 hours. On the procedure:
hTLR4 activation. HEK hTLR4-expressing cells were treated with 100 μM concentration of test compound followed by a 5-fold dilution series. HEK hTLR4-expressing cells also contained an NF-κB driven SEAP reporter and were stimulated with the indicated concentration (FIG. 1A-1C) of the test compound for 18 hours followed by assessment of the cellular supernatant for SEAP by a Quantikine SEAP assay (InvivoGen). The SEAP assay was used to look at secretion of the NF-κB driven alkaline-phosphatase reporter gene in response to TLR4 activation by the compounds and results are interpreted both in terms of potency of the compounds to induce SEAP activation (i.e. potency where a lower EC50 indicates higher potency) and efficacy for receptor activation (i.e. maximal SEAP induction).
A general note: A reporter such as luciferase makes a cellular process visible.

In test [2] the test system is influenza virus antigen A/Victoria/210/2009-H3N2. Nature of the test: Vaccine adjuvant study, murine influenza virus vaccination model. The following applies: intramuscular, 0.1, 0.01 or 0.001 μg with 0.2 μg antigen, 14 days after single immunization, 2% glycine. Format: in vivo, BALB/c mice. On the procedure: Vaccine adjuvant study. Compounds 2, 4, 5 and 7 were evaluated as vaccine adjuvant in a murine influenza virus vaccination model. 7-9 week old BALB/c mice (10 mice per group) were injected intramuscularly in a hind limb with the influenza virus antigen A/Victoria/210/2009-H3N2 (0.2 μg/mouse) with or without 0.1, 0.01 or 0.001 μg of compound 2, 4, 5 or 7 (formulated in 2% glycine). Fourteen days after a single immunization, animals were bled via the submandibular vein and serum was collected to assay for A/Victoria specific antibodies by ELISA assay (FIG. 7).

For test [3], the system named is primary hPBMCs. In words: Induction of RANTES from primary hPBMCs (ELISA). In general terms: In an ELISA, binding on a coated surface is turned into a signal by an enzyme label.
The test system of test [4] is primary hPBMCs. Nature of the test: Induction of MIP-1β from primary hPBMCs (ELISA).
Test [5] concerns hMM6 cells. Nature of the test: Induction of MIP-1β cytokine from hMM6 cells (ELISA). Format: cell-based. The following applies: Homo sapiens, 18 hours. How it is done: Induction of […] cytokine from hMM6 cells. The compounds were next tested in the established MM6 potency assay measuring MIP-1β cytokine production as an output measure of compound potency. Human monocytic cell line, Mono-Mac-6 (hMM6) was obtained from DSMZ (Brunswick, Germany). […] Treatments started at a 100 µM concentration proceeded with a 16-point, 5-fold dilution series. Supernatants were harvested and analyzed for production of MIP-1β via ELISA (R&D systems, catalog #DY271).

Test [6] has as its system mRAW264.7 cells. Nature of the test: Induction of MIP-1β cytokine from mRAW264.7 cells (ELISA). It is filed as cell-based. The following applies: Mus musculus, 18 hours, read-out: mRaw MIP-1β EC50. On the procedure:
Induction of MIP-1β cytokine from mRAW264.7 cells. […] Treatments started at 20 μM concentration with a 5-fold serial dilution until 3.2768E-09 μM. Supernatants were harvested and analyzed for production of MIP-1β via ELISA (R& D Systems-cat #DY451).

Where [7] appears, read: Homo sapiens, read-out: hPBMCs EC50 RANTES, Table 4b, Average of Donors 22, 5.
[8] abbreviates: Homo sapiens, read-out: hPBMCs EC50 RANTES, Table 4b, Donor 5.
Setting [9] is: Homo sapiens, read-out: hPBMCs EC50 RANTES, Table 4b, Donor 22.
The mark [10] stands for this setting: Homo sapiens, read-out: hPBMCs EC50 MIP-1β, Table 4b, Average of Donors 22, 5.
[11] abbreviates: Homo sapiens, read-out: hPBMCs EC50 MIP-1β, Table 4b, Donor 5.
Where [12] appears, read: Homo sapiens, read-out: hPBMCs EC50 MIP-1β, Table 4b, Donor 22.
Setting [13] is: Homo sapiens, read-out: hPBMCs EC50 RANTES, Table 3a, Average of Donors 10, 5, 2.
Setting [14] is: Homo sapiens, read-out: hPBMCs EC50 RANTES, Table 3a, Donor 2.
Setting [15] is: Homo sapiens, read-out: hPBMCs EC50 RANTES, Table 3a, Donor 5.
Where [16] appears, read: Homo sapiens, read-out: hPBMCs EC50 RANTES, Table 3a, Donor 10.
Where [17] appears, read: Homo sapiens, read-out: hPBMCs EC50 MIP-1β, Table 3a, Average of Donors 10, 5, 2.
Setting [18] is: Homo sapiens, read-out: hPBMCs EC50 MIP-1β, Table 3a, Donor 2.
Where [19] appears, read: Homo sapiens, read-out: hPBMCs EC50 MIP-1β, Table 3a, Donor 5.
The mark [20] stands for this setting: Homo sapiens, read-out: hPBMCs EC50 MIP-1β, Table 3a, Donor 10.
Setting [21] is: Homo sapiens, read-out: hPBMCs EC50 RANTES, Table 4c, one donor.
The mark [22] stands for this setting: Homo sapiens, 96 h, read-out: hPBMCs EC50 MIP-1β, Table 4d, one donor.

Counter-ions that a name gives are not always drawn.

T1 sequence (O00206 24-839): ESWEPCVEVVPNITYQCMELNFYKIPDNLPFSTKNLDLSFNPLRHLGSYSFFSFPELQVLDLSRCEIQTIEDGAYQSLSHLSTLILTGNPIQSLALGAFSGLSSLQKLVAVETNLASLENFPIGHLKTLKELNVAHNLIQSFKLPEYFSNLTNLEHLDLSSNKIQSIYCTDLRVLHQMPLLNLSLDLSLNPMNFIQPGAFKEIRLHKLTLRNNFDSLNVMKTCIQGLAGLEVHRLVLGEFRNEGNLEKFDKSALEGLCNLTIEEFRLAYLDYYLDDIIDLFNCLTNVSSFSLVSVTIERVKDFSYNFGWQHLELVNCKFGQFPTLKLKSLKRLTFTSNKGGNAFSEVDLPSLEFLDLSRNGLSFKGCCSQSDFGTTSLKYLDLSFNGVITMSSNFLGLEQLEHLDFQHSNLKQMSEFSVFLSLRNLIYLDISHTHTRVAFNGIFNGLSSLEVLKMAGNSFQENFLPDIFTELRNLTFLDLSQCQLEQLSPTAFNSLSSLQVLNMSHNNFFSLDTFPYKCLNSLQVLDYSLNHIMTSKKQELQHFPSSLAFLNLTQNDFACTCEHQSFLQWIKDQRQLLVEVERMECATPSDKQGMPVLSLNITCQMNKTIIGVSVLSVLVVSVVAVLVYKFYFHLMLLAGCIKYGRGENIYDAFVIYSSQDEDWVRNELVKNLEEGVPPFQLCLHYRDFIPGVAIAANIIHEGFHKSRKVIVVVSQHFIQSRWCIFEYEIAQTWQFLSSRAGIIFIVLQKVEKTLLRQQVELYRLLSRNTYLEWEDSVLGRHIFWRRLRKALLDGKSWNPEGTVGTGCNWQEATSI
T1 sequence (Q9Y6Y9 17-160 limits assumed): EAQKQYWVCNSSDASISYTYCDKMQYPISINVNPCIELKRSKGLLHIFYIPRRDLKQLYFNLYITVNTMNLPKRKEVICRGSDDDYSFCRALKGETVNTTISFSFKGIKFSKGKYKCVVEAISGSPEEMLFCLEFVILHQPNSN

Regarding “N—[(R)-3-Decyloxytetradecanoyl]-O-[2,3-di-[(R)-3-decyloxytetradecanoylamino]-2,3-dideoxy-4-O-methylphosphono-β-D-allopyranosyl]-L-serine triethylammonium salt [Compound 7]”, the EC50 is 780 pM in test [1] (Table 1b); 6 pM in test [3] (read-out: hPBMCs EC50 RANTES, Table 4b, Average of Donors 22, 5); 4.1 pM in test [3] (read-out: hPBMCs EC50 RANTES, Table 4b, Donor 5); 8 pM in test [3] (read-out: hPBMCs EC50 RANTES, Table 4b, Donor 22); 8.3 pM in test [4] (read-out: hPBMCs EC50 MIP-1β, Table 4b, Average of Donors 22, 5); 3.3 pM in test [4] (read-out: hPBMCs EC50 MIP-1β, Table 4b, Donor 5). Further, the concentration giving a half-maximal response (EC50) in test [4] (read-out: hPBMCs EC50 MIP-1β, Table 4b, Donor 22) is 13.3 pM. Further, the “adjuvant effect on flu-specific IgG2a antibody titers compared to antigen alone” value (shortened to “adjuvant effect … compared to antigen alone”) in test [2] is reported as “dose dependent adjuvant effect”.
As to `CCCCCCCCCCC[C@H](CC(=O)NCCO[C@@H]1OC(CO)[C@@H](OCP(=O)(O)O)[C@H](NC(=O)C[C@@H](CCCCCCCCCCC)OC(=O)CCCCCCCCC)C1NC(=O)C[C@@H](CCCCCCCCCCC)OC(=O)CCCCCCCCC)OC(=O)CCCCCCCCC` (some centres unmarked) [Compound 6], the EC50 in test [1] (Table 1b) came out at 10200 pM; in test [3] (setting [7]) it was 174 pM; in test [3] (setting [8]) it was 238 pM; in test [3] (setting [9]), 109 pM; in test [4] (setting [10]), 79.1 pM; in test [4] (setting [11]) it was 36 pM. For the same compound, in test [4] (setting [12]), the EC50 worked out at 122 pM.
As for `CCCCCCCCCCC[C@H](CC(=O)N[C@H]1[C@H](OC[C@H](NC(=O)C[C@@H](CCCCCCCCCCC)OC(=O)CCCCCCCCC)C(=O)OC)O[C@H](CO)[C@@H](OP(=O)(O)O)[C@H]1NC(=O)C[C@@H](CCCCCCCCCCC)OC(=O)CCCCCCCCC)OC(=O)CCCCCCCCC` [Compound 3, N—[(R)-3-Decanoyloxytetradecanoyl]-O-[2,3-di-[(R)-3-decanoyloxytetradecanoylamino]-2,3-dideoxy-4-O-phosphono-β-D-allopyranosyl]-L-serine methyl ester], the EC50 is 3950 pM in test [1] (Table 1a); 462 pM in test [5]; 11.2 pM in test [6]; 71.9 pM in test [3] (setting [13]); 15.8 pM in test [3] (setting [14]); 158 pM in test [3] (setting [15]). For the same compound, the EC50 was 41.7 pM in test [3] (setting [16]); 47.8 pM in test [4] (setting [17]); 31.4 pM in test [4] (setting [18]); 72.7 pM in test [4] (setting [19]); 39.4 pM in test [4] (setting [20]).
In the case of `CCCCCCCCCCC[C@H](CC(=O)NCCO[C@@H]1OC(CO)[C@@H](OP(=O)(O)O)C(NC(=O)C[C@@H](CCCCCCCCCCC)OC(=O)CCCCCCCc2ccccc2)C1NC(=O)C[C@@H](CCCCCCCCCCC)OC(=O)CCCCCCCc1ccccc1)OC(=O)CCCCCCCc1ccccc1` (stereo partly drawn) [Compound 8, 2-[(R)-3-(8-phenyl)octanoyloxytetradecanoylamino]ethyl 2,3-di-[(R)-3-(8-phenyl)octanoyloxytetradecanoylamino]-2,3-dideoxy-4-O-phosphono-β-D-allopyranoside triethylammonium Salt], the concentration for a half-maximal effect (EC50) in test [1] (Table 1b) was determined as 4990 pM; in test [3] (setting [21]) it was 39.1 pM; in test [4] (setting [22]) it was 41.8 pM.
With `CCCCCCCCCCC[C@H](CC(=O)NCCO[C@@H]1OC(CO)[C@@H](OP(=O)(O)O)C(NC(=O)C[C@@H](CCCCCCCCCCC)OC(=O)CCCCCCCc2ccccc2)C1NC(=O)C[C@@H](CCCCCCCCCCC)OC(=O)CCCCCCCCC)OC(=O)CCCCCCCCC` (stereo partly drawn) [Compound 9, 2-[(R)-3-decanoyloxytetradecanoylamino]ethyl, 2-[(R)-3-decanoyloxytetradecanoylamino]-3-[(R)-3-(8-phenyl)octanoyloxytetradecanoylamino]-2,3-dideoxy-4-O-phosphono-β-D-allopyranoside triethylammonium salt], the 50% effective concentration (EC50) was 15700 pM in test [1] (Table 1b), 143 pM in test [3] (setting [21]) and 182 pM in test [4] (setting [22]).
On to `CCCCCCCCCCC[C@H](CC(=O)NC1[C@H](OC[C@H](NC(=O)C[C@@H](CCCCCCCCCCC)OCCCCCCCCCC)C(=O)O)OC(CO)[C@@H](OS(=O)(=O)O)[C@@H]1NC(=O)C[C@@H](CCCCCCCCCCC)OCCCCCCCCCC)OCCCCCCCCCC` (stereo partly drawn) [Compound 5, N—[(R)-3-Decyloxytetradecanoyl]-O-[2,3-di-[(R)-3-decyloxytetradecanoylamino]-2,3-dideoxy-4-O-sulfoxy-β-D-allopyranosyl]-L-serine], for which the EC50 in test [1] (Table 1b) is 2900 pM; in test [3] (setting [7]), 23.8 pM; in test [3] (setting [8]), 15.6 pM; in test [3] (setting [9]) it was 31.9 pM; in test [4] (setting [10]), 27 pM; in test [4] (setting [11]), 15.1 pM. Besides, in test [4] (setting [12]), the EC50 is 39 pM. Further, in test [2], the “adjuvant effect … compared to antigen alone” value is reported as “dose dependent adjuvant effect”.
In the case of `CCCCCCCCCCC[C@H](CC(=O)NC1C(NC(=O)C[C@@H](CCCCCCCCCCC)OCCCCCCCCCC)[C@H](OP(=O)(O)O)C(CO)O[C@H]1OC[C@H](NC(=O)C[C@@H](CCCCCCCCCCC)OCCCCCCCCCC)C(=O)O)OCCCCCCCCCC` (some centres unmarked) [Compound 4], the EC50 was 1320 pM in test [1] (Table 1a); 1390 pM in test [1] (Table 1b); 124 pM in test [5]; 1.4 pM in test [6]; 8.3 pM in test [3] (setting [13]); 8.3 pM in test [3] (setting [14]). For the same compound, the EC50 in test [3] (setting [15]) stood at 8.1 pM; in test [3] (setting [16]), 8.4 pM; in test [3] (setting [7]) it was 18.5 pM; in test [3] (setting [8]), 14.9 pM; in test [3] (setting [9]), 22.1 pM; in test [4] (setting [17]), 4.9 pM. In addition, the concentration for a half-maximal effect (EC50) in test [4] (setting [18]) is 5.9 pM; in test [4] (setting [19]), 2.7 pM; in test [4] (setting [20]) it was 6.2 pM; in test [4] (setting [10]) it was 13.7 pM; in test [4] (setting [11]), 14.1 pM; in test [4] (setting [12]), 13.3 pM. In addition, the “adjuvant effect … compared to antigen alone” value in test [2] is reported as “dose dependent adjuvant effect”.
